Experimental data: PubChem BioAssay (NCI)
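Growth conditions: 96-well plates. Treatment: test compound, 48 hours, 5 concentrations. Analysis: linear interpolation between bracketing concentrations; unreached endpoints set to highest concentration. At the TGI there is no net growth.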

Tests used:
Assay in all cases: growth of human tumour cells (NCI), 48 h
UACC-257 melanoma = test system: UACC-257 melanoma
NCI-H522 lung = test system: NCI-H522 lung
SF-539 CNS = test system: SF-539 CNS
LOX IMVI melanoma = test system: LOX IMVI melanoma
PC-3 prostate = test system: PC-3 prostate
MOLT-4 leukemia = test system: MOLT-4 leukemia
MALME-3M melanoma = test system: MALME-3M melanoma
UO-31 renal = test system: UO-31 renal
NCI-H23 lung = test system: NCI-H23 lung
MCF7 breast = test system: MCF7 breast
NCI/ADR-RES ovarian = test system: NCI/ADR-RES ovarian
ACHN renal = test system: ACHN renal
HL-60(TB) leukemia = test system: HL-60(TB) leukemia
A549 NSCLC = test system: A549 NSCLC
MDA-MB-231 breast = test system: MDA-MB-231 breast
OVCAR-3 ovarian = test system: OVCAR-3 ovarian
RPMI-8226 leukemia = test system: RPMI-8226 leukemia
HCC-2998 colon = test system: HCC-2998 colon
T-47D breast = test system: T-47D breast
SK-OV-3 ovarian = test system: SK-OV-3 ovarian
SF-295 CNS = test system: SF-295 CNS
CAKI-1 renal = test system: CAKI-1 renal
HCT-15 colon = test system: HCT-15 colon
SF-268 CNS = test system: SF-268 CNS
HCT-116 colon = test system: HCT-116 colon
SN12C renal = test system: SN12C renal
NCI-H226 lung = test system: NCI-H226 lung
CCRF-CEM leukemia = test system: CCRF-CEM leukemia
NCI-H460 lung = test system: NCI-H460 lung
SNB-19 CNS = test system: SNB-19 CNS
KM12 colon = test system: KM12 colon
COLO 205 colon = test system: COLO 205 colon
TK-10 renal = test system: TK-10 renal
A498 renal = test system: A498 renal
IGROV1 ovarian = test system: IGROV1 ovarian
EKVX NSCLC = test system: EKVX NSCLC
SK-MEL-5 melanoma = test system: SK-MEL-5 melanoma
786-0 renal = test system: 786-0 renal
MDA-N = test system: MDA-N
SNB-75 CNS = test system: SNB-75 CNS
M14 melanoma = test system: M14 melanoma
HOP-62 NSCLC = test system: HOP-62 NSCLC
HOP-92 NSCLC = test system: HOP-92 NSCLC
RXF 393 renal = test system: RXF 393 renal
HS 578T breast = test system: HS 578T breast
HT29 colon = test system: HT29 colon
UACC-62 melanoma = test system: UACC-62 melanoma
OVCAR-5 ovarian = test system: OVCAR-5 ovarian
OVCAR-8 ovarian = test system: OVCAR-8 ovarian
SK-MEL-28 melanoma = test system: SK-MEL-28 melanoma
DU-145 prostate = test system: DU-145 prostate
OVCAR-4 ovarian = test system: OVCAR-4 ovarian
SW-620 colon = test system: SW-620 colon
K-562 leukemia = test system: K-562 leukemia
SR leukemia = test system: SR leukemia
SK-MEL-2 melanoma = test system: SK-MEL-2 melanoma
MDA-MB-435 = test system: MDA-MB-435
U251 CNS = test system: U251 CNS

Question: With `CCN(CC)CCCNc1nc2ccccc2c2[nH]c3ccc(OC)cc3c12` as the compound, how does the TGI (UACC-257 melanoma) read?
Answer: 3.2 µM

Question: What about the TGI (NCI-H522 lung) of the same compound?
Answer: 2.88 µM

Question: And the TGI (SF-539 CNS)?
Answer: 3.67 µM

Question: And the TGI (LOX IMVI melanoma)?
Answer: 2.9 µM

Question: And the TGI (PC-3 prostate)?
Answer: 2.73 µM

Question: What about the TGI (MOLT-4 leukemia) of the same compound?
Answer: 1.69 µM

Question: What about the TGI (MALME-3M melanoma) of the same compound?
Answer: 3.41 µM

Question: And the TGI (UO-31 renal)?
Answer: > 10 µM

Question: And the TGI (NCI-H23 lung)?
Answer: 2.93 µM

Question: And the TGI (MCF7 breast)?
Answer: 2.87 µM

Question: What about the TGI (NCI/ADR-RES ovarian) of the same compound?
Answer: 2.92 µM

Question: What about the TGI (ACHN renal) of the same compound?
Answer: > 10 µM

Question: And the TGI (HL-60(TB) leukemia)?
Answer: 3.02 µM

Question: And the TGI (A549 NSCLC)?
Answer: 3.37 µM

Question: What about the TGI (MDA-MB-231 breast) of the same compound?
Answer: 3.29 µM

Question: And the TGI (OVCAR-3 ovarian)?
Answer: > 10 µM

Question: And the TGI (RPMI-8226 leukemia)?
Answer: 9.41 µM

Question: What about the TGI (HCC-2998 colon) of the same compound?
Answer: 2.33 µM

Question: And the TGI (T-47D breast)?
Answer: > 10 µM

Question: What about the TGI (SK-OV-3 ovarian) of the same compound?
Answer: > 10 µM

Question: And the TGI (SF-295 CNS)?
Answer: 2.39 µM

Question: What about the TGI (CAKI-1 renal) of the same compound?
Answer: 8.25 µM

Question: And the TGI (HCT-15 colon)?
Answer: 3.05 µM

Question: And the TGI (SF-268 CNS)?
Answer: 4.43 µM

Question: And the TGI (HCT-116 colon)?
Answer: 1.95 µM

Question: And the TGI (SN12C renal)?
Answer: 7.1 µM

Question: And the TGI (NCI-H226 lung)?
Answer: 9.83 µM

Question: What about the TGI (CCRF-CEM leukemia) of the same compound?
Answer: 3.87 µM

Question: What about the TGI (NCI-H460 lung) of the same compound?
Answer: 1.57 µM

Question: What about the TGI (SNB-19 CNS) of the same compound?
Answer: 4.25 µM

Question: What about the TGI (KM12 colon) of the same compound?
Answer: 2.03 µM

Question: What about the TGI (COLO 205 colon) of the same compound?
Answer: 2.59 µM

Question: What about the TGI (TK-10 renal) of the same compound?
Answer: 5.55 µM

Question: And the TGI (A498 renal)?
Answer: 5.27 µM

Question: And the TGI (IGROV1 ovarian)?
Answer: 3.72 µM

Question: What about the TGI (EKVX NSCLC) of the same compound?
Answer: 3.31 µM

Question: What about the TGI (SK-MEL-5 melanoma) of the same compound?
Answer: 3.12 µM

Question: What about the TGI (786-0 renal) of the same compound?
Answer: 2.41 µM

Question: And the TGI (MDA-N)?
Answer: 2.99 µM

Question: And the TGI (SNB-75 CNS)?
Answer: 3.35 µM

Question: What about the TGI (M14 melanoma) of the same compound?
Answer: 3.1 µM

Question: What about the TGI (HOP-62 NSCLC) of the same compound?
Answer: 3 µM

Question: What about the TGI (HOP-92 NSCLC) of the same compound?
Answer: 9.53 µM

Question: What about the TGI (RXF 393 renal) of the same compound?
Answer: 2.96 µM

Question: And the TGI (HS 578T breast)?
Answer: 3.81 µM

Question: And the TGI (HT29 colon)?
Answer: 2.05 µM

Question: And the TGI (UACC-62 melanoma)?
Answer: > 10 µM

Question: And the TGI (OVCAR-5 ovarian)?
Answer: 3.18 µM

Question: What about the TGI (OVCAR-8 ovarian) of the same compound?
Answer: 2.41 µM

Question: What about the TGI (SK-MEL-28 melanoma) of the same compound?
Answer: 3.11 µM

Question: And the TGI (DU-145 prostate)?
Answer: 8.44 µM

Question: What about the TGI (OVCAR-4 ovarian) of the same compound?
Answer: 2.64 µM

Question: What about the TGI (SW-620 colon) of the same compound?
Answer: 2.37 µM

Question: And the TGI (K-562 leukemia)?
Answer: 3.44 µM

Question: What about the TGI (SR leukemia) of the same compound?
Answer: 5.95 µM

Question: What about the TGI (SK-MEL-2 melanoma) of the same compound?
Answer: 3.16 µM

Question: What about the TGI (MDA-MB-435) of the same compound?
Answer: 2.99 µM

Question: And the TGI (U251 CNS)?
Answer: 3.23 µM
